Test results: US11371097B2, “Articles for diagnosis of liver fibrosis” (THE GOVERNMENT OF THE UNITED STATES, as represented by THE …, priority 2015, dated 2022)
“And” between values parts separate entries of the source, which are not always exact repeats. Identical values can stand only once. “Also recorded” adds a separate entry of the source.

Assays:
[1] = test system: 67 genes on the fibrosis gene panel; assay: Multiplexed fibrosis gene panel (QuantiGene 2.0 Plex / Bioplex) on liver RNA
Experimental: mRNA is isolated and purified from lysed tissue biopsy specimens. The target mRNA is incubated with beads conjugated to capture probes (each probe is an oligonucleotides specific for one of the genes in the panel). The target is hybridized to the probe by a capture extender-capture probe interaction. Specific mRNA targets hybridize overnight to the respective beads. The signal is amplified by incubating mRNA-capture probe pairs by affixing an amplifier affixed to a biotinylated label probe. Streptavidin-conjugated phycoerythrin (SAPE) is bound to the biotinylated probe to amplify the signal. The signal is detected and quantified by Bioplex suspension array instrumentation, which measures the SAPE fluorescence signal proportional to the amount of mRNA transcripts captured by the bead.
Candidate genes identified by co-expression modules and pathway/network approaches were fabricated into a custom gene panel using a commercial source (the QuantiGene 2.0 Plex assay, Affymetrix, Santa Clara, Calif.). A total of 71 genes plus 3 housekeeping genes were selected. Using 150 ng RNA input, samples were processed following manufacturer's instructions for purified RNA with use of the HandHeld Magnetic Plate Washer. Plates were read immediately following the final wash using the BioPlex 200 instrument (BioRad, Hercules, Calif.). The following parameters were set on the BioPlex instrument: sample size=100 μL; DD Gate=5,000-25,000; Timeout=45 sec; Bead Event/Bead Region=100.
For each sample, the average signal intensity was determined as recommended by the manufacturer. Duplicates were averaged. The average background signal for each gene was subtracted. Assay limit of detection was determined by adding three standard deviations of assay background signals to the average intensity of the background control wells. All intensities lower than the limit of detection for each probe was set to one unit above the probe's limit of detection. Probes with all intensities below the assay limit of detection were removed from the final analysis. The test gene signal was divided by the average intensities of the three normalization genes (Gapdh, Hprt1, Ppib). For each test gene, the fold change was calculated by dividing the normalized value for the treated samples by the normalized value of the vehicle-treated controls. Fold changes were plotted as log2 fold change. Gene expression data were imported into Partek Genomics Suite 6.0 (Partek, Inc., St. Louis, Mo.). Principal component analysis was used for multivariate interpretation to determine sources of variation across sample groups (Joliffe I T, Morgan B J. Principal component analysis and exploratory factor analysis. Statistical methods in medical research 1992; 1(1):69-95). Differentially expressed genes were determined by analysis of variance (ANOVA) with contrasts, setting the ANOVA factors as toxicant and the histopathological endpoint of fibrosis (any score >0). ANOVA variables were fibrosis score 0 (none) vs. score of >0 (minimal, mild, moderate, and marked). For hierarchical biclustering, differentially expressed genes were standardized by setting the genes expressed to a mean of zero and scaling to a standard deviation of one. Euclidean geometry was used to cluster row and column dissimilarity using a method of average linkage.
Chemical-dose groups were down-selected based on histopathology to conform to the 96-well assay format of the multiplexed panel of presumptive fibrosis genes. Three of the four dose groups were evaluated for the fibrogenic chemicals allyl alcohol and 4,4′-methylenedianiline. A single dose was selected with group-matched vehicle controls for each of the remaining chemicals. […] The highest dose of bromobenzene was selected because the vacuolation pathology was only observed at this dose.
Isolated liver RNA was incubated with microbead-bound capture probes specific for the 71 presumptive fibrogenic genes and three housekeeping normalization genes.

[2] = test system: Tgfb1; assay: qPCR of liver RNA: Tgfb1; format: in vivo, Male Sprague-Dawley rats; settings: liver, across dose groups, vs control
Experimental: Working on dry ice, a portion (−10 mg) of flash-frozen liver was cut from each sample and transferred to a clean, labeled tube. Total RNA was then isolated using Qiagen's miRNeasy 96 kit (Qiagen, Valencia, Calif.) following manufacturer's instructions with a final elution volume of −150 μL (2×75 μL). The quality and quantity of RNA samples were evaluated with a 2100 Bioanalyzer (Agilent Technologies, Santa Clara, Calif.), using the Agilent RNA 6000 Nano Reagents and a multiwell NanoDrop 8000 spectrophotometer (Thermo Fisher Scientific, Waltham, Mass.).
Using 1 μg RNA input, cDNA was generated using a QuantiTect Reverse Transcription kit (Qiagen, Valencia, Calif.) following manufacturer's instructions. Applied Biosystems SYBR Green Master Mix was used in a 20 μL qPCR reaction with 2 μL of cDNA template and a 2.tM final concentration of each primer. A total of five genes were targeted (Gapdh, Actb, Timp1, Tgfbl, and Psma5), two of which served as the endogenous controls (Gapdh and Actb). An Applied Biosystems 7500 Real-Time PCR System (Applied Biosystems, Foster City, Calif.) was used for thermal cycling and fluorescence detection using the default settings for Quantitation-Comparative CT with SYBR® . . . Green Reagents which uses the following scheme: 95° C. for 10 minutes followed by 40 cycles of: 95° C. for 15 seconds, 60° C. for 1 minute, and a fluorescence signal read. Al! primers were obtained from Integrated DNA Technology's PrimeTime qPCR primer library (Integrated DNA Technologies, Coralville, Iowa).
Data was imported into GraphPad Prism (GraphPad Software, Inc.; LaJolla, Calif.) for analysis. A nonparametric Kruskal-Wallis analysis of variance by ranks with post hoc […] multiple comparison test was used to determine statistical difference among dose groups. A one sample t-test compared to a theoretical mean of 1.0 fold change was used to determine difference from control for each dose group. A p-value<0.05 was used as a cutoff for statistical significance.

[3] = 4,4′-MDA 59.7 mg/kg, animals 93-96
[4] = liver RNA, individual animals, Carbon Tetrachloride 200, Bromobenzene 785, Dexamethasone 1 mg/kg
[5] = liver, relative to the other pathologies

Structure (SMILES): Nc1ccc(Cc2ccc(N)cc2)cc1 [4,4′-methylenedianiline]
- Anxa2 differential expression [1, 3]: 2.439 and 1.755 and 2.514
- Arpc1b differential expression [1, 3]: 1.147 and 1.069 and 1.373
- C1qb differential expression [1, 3]: 0.893 and 0.937 and 1.469
- CD53 differential expression [1, 3]: 0.950 and 1.045 and 1.560
- Capg differential expression [1, 3]: 1.169 and 1.723 and 2.026
- Ccl2 differential expression [1, 3]: 1.483 and 1.928 and 1.705
- Ctgf differential expression [1, 3]: 1.026 and 0.691 and 1.013
- Cxcl16 differential expression [1, 3]: 1.969 and 1.196 and 2.174
- Cyba differential expression [1, 3]: 1.216 and 1.165 and 2.041
- Dsc2 differential expression [1, 3]: 0.258 and 0.244 and 0.474
- Fam102b differential expression [1, 3]: 0.577 and 0.939 and 0.845
- Fam105a differential expression [1, 3]: 1.236 and 1.186 and 1.900
- Fxyd5 differential expression [1, 3]: 1.025 and 0.916 and 1.613
- Gpnmb differential expression [1, 3]: 1.876 and 1.911 and 3.162
- Itga1 differential expression [1, 3]: 1.064 and 1.196 and 1.743
- Itgb2 differential expression [1, 3]: 0.709 and 1.138 and 1.216
- Lame2 differential expression [1, 3]: 1.485 and 0.755 and 1.416
- Lbp differential expression [1, 3]: 2.023 and 1.422 and 2.026
- Lgals3 differential expression [1, 3]: 1.931 and 2.085 and 2.575
- Pkm2 differential expression [1, 3]: 1.314 and 1.491 and 2.389
- Plau differential expression [1, 3]: 0.941 and 0.957 and 1.332
- RT1-DMa differential expression [1, 3]: 1.381 and 2.022 and 2.522 and 1.938
- RT1-Da differential expression [1, 3]: 1.431 and 2.375 and 2.640
- Serpine1 differential expression [1, 3]: 1.151 and 1.305 and 1.475
- TagIn2 differential expression [1, 3]: 1.404 and 1.169 and 1.971
- Timp1 differential expression [1, 3]: 1.871 and 1.153 and 2.099
- RT1-DMa differential expression ([1]; 4,4′-MDA 162 mg/kg, animals 97-100): 1.970 and 1.713 and 2.157 and 1.814
- Hierarchical biclustering of log2 fold-changes in panel gene expression ([1]; liver, 67 genes): clustered together
- Tgfb1 gene expression by qPCR [2]: showed a dose-dependent increase; also recorded: dose-dependent increases in gene expression

Structure (SMILES): Brc1ccccc1 [bromobenzene]
- Pcolce expression levels compared with fibrogenic compounds ([1]; liver): anti-correlated with corresponding gene expression levels induced by 4,4′-methylenedianiline and allyl alcohol
- Differential Expression of A2m [1, 4]: −4.054 and −4.444 and −2.844 and −1.670
- Differential Expression of Angptl3 [1, 4]: −0.864 and −1.104 and −0.499 and −0.518
- Differential Expression of Anxa2 [1, 4]: 1.771 and 1.226 and 1.391 and 0.783
- Differential Expression of Apoc [1, 4]: −0.325 and −0.372 and −0.172 and −0.338
- Differential Expression of Arf6 [1, 4]: 0.324 and 0.475 and 0.461 and 0.239
- Differential Expression of Arpc1b [1, 4]: −0.171 and −0.454 and −0.337 and −0.315
- Differential Expression of Arrb1 [1, 4]: −1.220 and −1.482 and −0.627 and −2.254
- Differential Expression of C1qb [1, 4]: −0.465 and −0.014 and 0.309 and 0.018
- Differential Expression of CD9 [1, 4]: −0.072 and −0.052 and 0.416 and 0.476
- Differential Expression of CD53 [1, 4]: −0.045 and −0.339 and 0.303 and −0.440
- Differential Expression of CP [1, 4]: −1.055 and −0.969 and −0.530 and −1.250
- Differential Expression of Capg [1, 4]: −0.835 and −0.762 and 0.053 and −1.140
- Differential Expression of Ccl2 [1, 4]: −0.790 and −1.244 and −1.328 and −1.622
- Differential Expression of Col1a1 [1, 4]: −0.659 and −0.336 and 0.149 and −0.231
- Differential Expression of Col1a2 [1, 4]: −0.901 and −0.686 and −0.378 and −0.731
- Differential Expression of Col4a1 [1, 4]: −0.512 and −0.387 and −0.163 and −0.340
- Differential Expression of Col5a2 [1, 4]: −0.708 and −0.778 and −0.542 and −0.877
- Differential Expression of Ctgf [1, 4]: −1.387 and −1.037 and −0.649 and −0.389
- Differential Expression of Cxcl1 [1, 4]: −0.610 and −0.492 and −0.386 and −0.930
- Differential Expression of Cxcl12 [1, 4]: −2.564 and −2.540 and −1.640 and −2.717
- Differential Expression of Cxcl16 [1, 4]: −0.140 and −1.150 and −0.275 and −0.468
- Differential Expression of Cyba [1, 4]: −0.761 and −0.590 and 0.049 and −0.752
- Differential Expression of Cyp2c11 [1, 4]: −7.760 and −8.696 and −7.411 and −6.882
- Differential Expression of Dsc2 [1, 4]: 0.800 and 0.827 and 0.610 and 0.624
- Differential Expression of Fam102b [1, 4]: −0.808 and −0.338 and −0.148 and −0.780
- Differential Expression of Fam105a [1, 4]: −0.461 and −0.047 and 0.188 and −0.207
- Differential Expression of Fbn1 [1, 4]: −1.303 and −1.090 and −0.632 and −1.013
- Differential Expression of Fn1 [1, 4]: −1.880 and −1.522 and −1.313 and −1.481
- Differential Expression of Fstl1 [1, 4]: −1.078 and −0.899 and −0.423 and −1.140
- Differential Expression of Fxyd5 [1, 4]: −0.189 and −0.159 and 0.283 and −0.184
- Differential Expression of Gpnmb [1, 4]: 1.906 and 1.987 and 2.373 and 1.454
- Differential Expression of Igfals [1, 4]: −2.524 and −2.336 and −2.083 and −3.007
- Differential Expression of Igfbp1 [1, 4]: 3.275 and 3.897 and 0.758 and 3.616
- Differential Expression of Igfbp2 [1, 4]: 0.339 and 0.249 and −0.180 and 0.559
- Differential Expression of Igfbp3 [1, 4]: −2.127 and −1.911 and −1.316 and −1.713
- Differential Expression of Itga1 [1, 4]: −0.672 and −0.525 and 0.257 and −0.880
- Differential Expression of Itgb2 [1, 4]: −0.722 and −0.914 and −0.301 and −1.032
- Differential Expression of Lame2 [1, 4]: −0.725 and −1.692 and −0.854 and −1.188
- Differential Expression of Lbp [1, 4]: 0.157 and 0.036 and 0.207 and −0.066
- Differential Expression of Len2 [1, 4]: −0.682 and −0.719 and −0.661 and −1.007
- Differential Expression of Lgals1 [1, 4]: −0.856 and −0.388 and −0.455 and −0.084
- Differential Expression of Lgals3 [1, 4]: 1.367 and 0.936 and 1.432 and 0.867
- Differential Expression of Lgals3bp [1, 4]: −0.415 and −0.105 and 0.126 and −0.427
- Differential Expression of Lox [1, 4]: −1.197 and −1.023 and −0.699 and −0.615
- Differential Expression of Lrp1 [1, 4]: −1.297 and −1.003 and −0.323 and −1.011
- Differential Expression of Lum [1, 4]: −0.152 and −0.296 and −0.116 and −0.530
- Differential Expression of Mmp2 [1, 4]: −0.086 and 0.177 and 0.235 and −0.151
- Differential Expression of Nid1 [1, 4]: −0.460 and −0.132 and 0.014 and −0.579
- Differential Expression of Pcolce [1, 4]: −1.230 and −0.974 and −0.145 and −1.087
- Differential Expression of Pkm2 [1, 4]: −0.142 and −0.085 and 0.069 and −0.110
- Differential Expression of Plat [1, 4]: 0.202 and 0.005 and 0.027 and 0.084
- Differential Expression of Plau [1, 4]: −1.049 and −0.402 and −0.470 and −1.553
- Differential Expression of Plod2 [1, 4]: −0.446 and −0.410 and −0.613 and −0.623
- Differential Expression of RT1-DMa [1, 4]: −0.569 and −0.589 and 0.149 and −0.606
- Differential Expression of RT1-Da [1, 4]: −0.205 and −0.563 and 0.533 and −0.554
- Differential Expression of S100A6 [1, 4]: −0.521 and 0.005 and −0.682 and 0.207
- Differential Expression of S100A11 [1, 4]: −0.356 and −0.292 and 0.061 and −0.441
- Differential Expression of Serpine1 [1, 4]: 0.153 and 0.825 and −0.550 and 0.552
- Differential Expression of Serping1 [1, 4]: −1.107 and −0.925 and −0.627 and −0.678
- Differential Expression of Slc25a24 [1, 4]: −0.143 and 0.149 and 0.189 and −0.325
- Differential Expression of Sod2 [1, 4]: 0.200 and −0.035 and 0.134 and 0.187
- Differential Expression of TagIn2 [1, 4]: −0.669 and −0.625 and 0.147 and −0.816
- Differential Expression of Tgfb1 [1, 4]: −0.596 and −0.528 and −0.330 and −0.639
- Differential Expression of Timp1 [1, 4]: −0.428 and −0.191 and −0.231 and −0.056
- Differential Expression of Vhl [1, 4]: 0.043 and −0.096 and −0.334 and −0.363
- Differential Expression of Vim [1, 4]: −0.148 and −0.045 and −0.109 and −0.327
- Differential Expression of Vtn [1, 4]: −1.353 and −1.261 and −0.746 and −0.854
- Panel genes downregulated (and upregulated in fibrogenic chemical-dose groups) ([1]; liver, 67-gene panel, 1.5-fold threshold): 12 genes
- A2m expression [1, 5]: downregulated
- Lcn2 expression [1, 5]: downregulated
- Pcolce expression [1, 5]: downregulated
- Tgfb1 gene expression by qPCR [2]: not significantly affected at any dose; also recorded: slight, statistically insignificant increase
